Results on two compounds are retold here after ChEMBL document CHEMBL1134625 (J Med Chem, 2001).

Experiment [1] has as its target T1, Adenosine receptor A3 (Homo sapiens, UniProt P0DMS8).
T1 sequence (P0DMS8 whole entry): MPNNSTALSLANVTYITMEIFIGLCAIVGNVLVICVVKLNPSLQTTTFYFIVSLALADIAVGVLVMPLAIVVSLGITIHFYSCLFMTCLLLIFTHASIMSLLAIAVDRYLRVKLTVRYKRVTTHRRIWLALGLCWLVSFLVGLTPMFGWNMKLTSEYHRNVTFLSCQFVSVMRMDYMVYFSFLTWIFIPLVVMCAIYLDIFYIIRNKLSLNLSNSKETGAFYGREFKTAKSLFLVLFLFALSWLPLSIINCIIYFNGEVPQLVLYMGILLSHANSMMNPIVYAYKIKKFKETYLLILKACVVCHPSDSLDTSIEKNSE

Experiment [2] addresses D(1B) dopamine receptor (Homo sapiens, UniProt P21918).
Experiment [3] has as its target Histamine H1 receptor (Homo sapiens, UniProt P35367).
Experiment [4] concerns the target Substance-K receptor (Homo sapiens, UniProt P21452).
Experiment [5] deals with T2, Adrenergic receptor alpha-1 (Homo sapiens, UniProt P35348+P25100+P35368).
T2 sequence (P35348 whole entry): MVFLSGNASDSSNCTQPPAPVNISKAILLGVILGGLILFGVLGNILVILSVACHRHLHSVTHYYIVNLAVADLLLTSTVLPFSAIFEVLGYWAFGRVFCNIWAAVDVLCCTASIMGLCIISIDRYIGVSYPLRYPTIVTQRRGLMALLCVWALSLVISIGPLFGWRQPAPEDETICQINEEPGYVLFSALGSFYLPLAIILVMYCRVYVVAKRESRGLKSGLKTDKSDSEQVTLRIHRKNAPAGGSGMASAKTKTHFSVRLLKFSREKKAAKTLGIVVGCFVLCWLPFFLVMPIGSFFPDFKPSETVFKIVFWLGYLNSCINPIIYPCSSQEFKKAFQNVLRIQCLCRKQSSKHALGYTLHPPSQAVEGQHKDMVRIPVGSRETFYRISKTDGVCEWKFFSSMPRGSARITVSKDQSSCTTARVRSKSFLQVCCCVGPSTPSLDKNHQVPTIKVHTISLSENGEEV
T2 sequence (P25100 whole entry): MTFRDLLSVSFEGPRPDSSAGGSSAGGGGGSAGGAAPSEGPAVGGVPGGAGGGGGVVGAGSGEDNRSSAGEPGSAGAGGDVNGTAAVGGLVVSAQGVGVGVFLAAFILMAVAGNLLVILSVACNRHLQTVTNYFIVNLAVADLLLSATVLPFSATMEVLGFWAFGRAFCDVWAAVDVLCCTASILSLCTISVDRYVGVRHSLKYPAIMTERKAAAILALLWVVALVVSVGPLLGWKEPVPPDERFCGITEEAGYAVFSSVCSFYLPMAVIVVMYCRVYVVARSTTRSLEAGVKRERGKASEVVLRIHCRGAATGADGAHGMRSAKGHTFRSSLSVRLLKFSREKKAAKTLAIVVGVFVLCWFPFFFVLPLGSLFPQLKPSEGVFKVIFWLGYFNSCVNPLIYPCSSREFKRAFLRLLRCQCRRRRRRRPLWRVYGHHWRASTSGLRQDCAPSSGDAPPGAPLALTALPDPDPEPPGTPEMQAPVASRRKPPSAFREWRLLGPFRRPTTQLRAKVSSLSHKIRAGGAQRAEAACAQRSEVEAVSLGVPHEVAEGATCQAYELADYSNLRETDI
T2 sequence (P35368 whole entry): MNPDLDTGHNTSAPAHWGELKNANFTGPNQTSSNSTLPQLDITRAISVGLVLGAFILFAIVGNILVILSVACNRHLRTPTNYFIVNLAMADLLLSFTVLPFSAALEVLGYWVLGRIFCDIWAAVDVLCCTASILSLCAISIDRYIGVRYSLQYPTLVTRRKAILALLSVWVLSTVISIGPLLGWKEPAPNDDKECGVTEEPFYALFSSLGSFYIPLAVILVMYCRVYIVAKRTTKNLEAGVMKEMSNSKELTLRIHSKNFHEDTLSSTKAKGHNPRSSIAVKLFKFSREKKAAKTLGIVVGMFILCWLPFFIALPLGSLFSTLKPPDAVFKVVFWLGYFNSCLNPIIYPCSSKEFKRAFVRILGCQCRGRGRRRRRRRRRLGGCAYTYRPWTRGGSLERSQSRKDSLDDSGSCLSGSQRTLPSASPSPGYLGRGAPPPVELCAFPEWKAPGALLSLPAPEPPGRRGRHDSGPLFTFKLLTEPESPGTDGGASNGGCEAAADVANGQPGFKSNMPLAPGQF
It counts as protein assay.

Experiment [6] deals with Histamine H2 receptor (Homo sapiens, UniProt P25021).
For experiment [7], the target named is T3, 5-hydroxytryptamine receptor 2C (Homo sapiens, UniProt P28335).
T3 sequence (P28335 whole entry): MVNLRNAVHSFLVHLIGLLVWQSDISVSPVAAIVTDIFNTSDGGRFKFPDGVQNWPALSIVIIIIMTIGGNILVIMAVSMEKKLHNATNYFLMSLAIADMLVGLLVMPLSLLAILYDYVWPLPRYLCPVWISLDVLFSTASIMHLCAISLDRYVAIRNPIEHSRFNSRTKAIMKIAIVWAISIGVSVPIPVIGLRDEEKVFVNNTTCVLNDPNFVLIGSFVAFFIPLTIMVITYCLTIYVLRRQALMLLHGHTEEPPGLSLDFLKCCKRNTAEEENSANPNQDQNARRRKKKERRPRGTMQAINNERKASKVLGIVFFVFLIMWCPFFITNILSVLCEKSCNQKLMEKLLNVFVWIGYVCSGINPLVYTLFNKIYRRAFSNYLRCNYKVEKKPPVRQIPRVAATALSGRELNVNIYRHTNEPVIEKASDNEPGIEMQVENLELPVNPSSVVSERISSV

In experiment [8] the target is Voltage-gated L-type calcium channel (Homo sapiens, UniProt Q13936+Q13698+Q01668+O60840). It counts as protein assay.
For experiment [9], the target named is 5-hydroxytryptamine receptor 7 (Homo sapiens, UniProt P34969).
Experiment [10] deals with D(3) dopamine receptor (Homo sapiens, UniProt P35462).
Experiment [11] addresses Substance-P receptor (Homo sapiens, UniProt P25103).
Experiment [12] concerns the target Sodium-dependent dopamine transporter (Homo sapiens, UniProt Q01959).
For experiment [13], the target named is D(2) dopamine receptor (Homo sapiens, UniProt P14416).
The target in experiment [14] is 5-hydroxytryptamine receptor 2A (Homo sapiens, UniProt P28223).
Experiment [15] deals with 5-hydroxytryptamine receptor 6 (Homo sapiens, UniProt P50406).
In experiment [16] the target is D(1A) dopamine receptor (Homo sapiens, UniProt P21728).
In experiment [17] the target is 5-hydroxytryptamine receptor 1B (Homo sapiens, UniProt P28222).
The target of experiment [18] is Vasopressin V1a receptor (Homo sapiens, UniProt P37288).
Experiment [19] concerns the target Translocator protein (Homo sapiens, UniProt P30536).
Experiment [20] concerns the target Adenosine receptor A1 (Homo sapiens, UniProt P30542).
Experiment [21] concerns the target Sodium-dependent noradrenaline transporter (Homo sapiens, UniProt P23975).
Experiment [22] addresses T4, 5-hydroxytryptamine receptor 1A (Homo sapiens, UniProt P08908).
T4 sequence (P08908 whole entry): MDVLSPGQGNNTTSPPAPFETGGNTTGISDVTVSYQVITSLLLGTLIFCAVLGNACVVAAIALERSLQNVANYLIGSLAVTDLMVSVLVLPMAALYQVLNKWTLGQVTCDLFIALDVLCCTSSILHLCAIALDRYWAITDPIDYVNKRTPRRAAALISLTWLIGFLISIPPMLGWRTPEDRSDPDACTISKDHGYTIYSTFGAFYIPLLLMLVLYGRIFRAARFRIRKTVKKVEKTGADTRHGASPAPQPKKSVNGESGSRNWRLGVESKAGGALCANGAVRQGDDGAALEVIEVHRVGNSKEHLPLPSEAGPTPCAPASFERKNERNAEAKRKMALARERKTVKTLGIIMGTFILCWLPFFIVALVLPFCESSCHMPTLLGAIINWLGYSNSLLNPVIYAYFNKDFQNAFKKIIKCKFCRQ

The target in experiment [23] is Melatonin receptor type 1A (Homo sapiens, UniProt P48039).
Sequence of Melatonin receptor type 1A (P48039 whole entry): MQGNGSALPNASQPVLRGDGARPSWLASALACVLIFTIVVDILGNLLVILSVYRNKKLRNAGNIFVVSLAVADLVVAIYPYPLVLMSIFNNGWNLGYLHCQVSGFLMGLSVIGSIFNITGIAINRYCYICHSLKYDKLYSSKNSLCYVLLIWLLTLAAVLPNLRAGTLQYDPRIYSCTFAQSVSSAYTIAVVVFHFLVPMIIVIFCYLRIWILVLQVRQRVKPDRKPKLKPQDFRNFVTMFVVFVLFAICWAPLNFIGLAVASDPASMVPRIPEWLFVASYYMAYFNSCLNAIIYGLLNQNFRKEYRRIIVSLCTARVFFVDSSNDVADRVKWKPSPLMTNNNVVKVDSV

Sequence of D(1B) dopamine receptor (P21918 whole entry): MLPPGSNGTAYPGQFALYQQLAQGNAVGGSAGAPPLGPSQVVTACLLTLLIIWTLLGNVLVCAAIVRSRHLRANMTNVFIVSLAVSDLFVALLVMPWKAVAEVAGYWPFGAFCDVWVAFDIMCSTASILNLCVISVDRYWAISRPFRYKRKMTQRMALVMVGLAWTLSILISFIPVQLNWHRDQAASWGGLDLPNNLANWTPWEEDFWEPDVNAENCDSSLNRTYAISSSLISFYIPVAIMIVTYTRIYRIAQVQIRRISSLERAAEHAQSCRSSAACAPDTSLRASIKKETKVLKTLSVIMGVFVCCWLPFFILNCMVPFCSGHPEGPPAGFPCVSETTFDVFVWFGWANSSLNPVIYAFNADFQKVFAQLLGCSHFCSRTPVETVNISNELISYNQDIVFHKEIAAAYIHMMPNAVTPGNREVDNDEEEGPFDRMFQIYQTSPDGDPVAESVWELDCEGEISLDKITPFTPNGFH
Sequence of Substance-K receptor (P21452 whole entry): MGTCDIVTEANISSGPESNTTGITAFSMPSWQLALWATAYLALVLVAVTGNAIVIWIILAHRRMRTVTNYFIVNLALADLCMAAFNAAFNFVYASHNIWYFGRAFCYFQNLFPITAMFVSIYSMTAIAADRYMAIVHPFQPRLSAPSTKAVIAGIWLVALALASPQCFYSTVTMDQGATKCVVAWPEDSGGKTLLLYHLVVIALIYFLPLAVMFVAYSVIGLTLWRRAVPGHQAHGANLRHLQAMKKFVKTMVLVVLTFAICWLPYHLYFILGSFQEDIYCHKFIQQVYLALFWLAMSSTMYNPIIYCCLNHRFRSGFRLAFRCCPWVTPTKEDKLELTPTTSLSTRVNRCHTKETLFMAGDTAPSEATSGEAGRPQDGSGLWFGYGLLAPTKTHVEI
Sequence of D(1A) dopamine receptor (P21728 whole entry): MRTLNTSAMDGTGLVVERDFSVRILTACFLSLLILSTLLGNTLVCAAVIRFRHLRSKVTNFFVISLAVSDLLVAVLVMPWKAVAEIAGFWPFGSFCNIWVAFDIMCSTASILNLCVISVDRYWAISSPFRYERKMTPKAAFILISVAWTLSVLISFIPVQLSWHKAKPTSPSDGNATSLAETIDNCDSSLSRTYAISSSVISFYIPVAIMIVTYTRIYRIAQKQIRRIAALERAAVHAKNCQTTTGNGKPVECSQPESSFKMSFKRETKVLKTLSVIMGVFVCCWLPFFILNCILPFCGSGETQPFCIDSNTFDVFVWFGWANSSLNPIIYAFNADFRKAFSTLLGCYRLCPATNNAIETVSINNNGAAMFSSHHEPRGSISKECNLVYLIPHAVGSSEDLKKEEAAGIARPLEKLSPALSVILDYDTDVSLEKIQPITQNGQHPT
Sequence of 5-hydroxytryptamine receptor 7 (P34969 whole entry): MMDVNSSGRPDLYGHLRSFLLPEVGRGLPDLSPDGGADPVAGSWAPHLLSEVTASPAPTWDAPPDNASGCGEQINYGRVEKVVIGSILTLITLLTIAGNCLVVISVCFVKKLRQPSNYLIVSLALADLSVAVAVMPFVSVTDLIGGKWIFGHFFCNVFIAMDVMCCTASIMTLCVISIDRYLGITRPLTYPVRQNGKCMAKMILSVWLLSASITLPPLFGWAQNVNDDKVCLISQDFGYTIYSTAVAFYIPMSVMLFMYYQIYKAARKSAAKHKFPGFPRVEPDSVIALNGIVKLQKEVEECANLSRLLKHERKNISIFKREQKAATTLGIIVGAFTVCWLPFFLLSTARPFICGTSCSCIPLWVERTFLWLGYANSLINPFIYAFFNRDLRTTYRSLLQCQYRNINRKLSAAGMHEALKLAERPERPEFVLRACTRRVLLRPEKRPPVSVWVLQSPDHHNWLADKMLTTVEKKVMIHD
Sequence of Histamine H1 receptor (P35367 whole entry): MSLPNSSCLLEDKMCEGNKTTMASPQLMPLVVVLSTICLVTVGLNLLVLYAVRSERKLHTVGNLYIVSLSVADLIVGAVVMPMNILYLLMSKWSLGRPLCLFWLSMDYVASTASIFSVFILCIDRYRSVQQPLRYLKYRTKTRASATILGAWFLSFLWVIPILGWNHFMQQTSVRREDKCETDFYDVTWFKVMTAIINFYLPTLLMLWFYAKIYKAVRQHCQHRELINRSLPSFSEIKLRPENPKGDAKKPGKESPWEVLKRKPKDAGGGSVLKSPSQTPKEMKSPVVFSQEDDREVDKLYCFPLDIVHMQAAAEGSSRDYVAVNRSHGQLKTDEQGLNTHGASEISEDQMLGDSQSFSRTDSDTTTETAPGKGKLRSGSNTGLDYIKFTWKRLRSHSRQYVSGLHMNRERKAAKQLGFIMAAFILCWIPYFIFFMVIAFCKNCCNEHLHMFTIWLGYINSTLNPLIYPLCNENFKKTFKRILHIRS
Sequence of Substance-P receptor (P25103 whole entry): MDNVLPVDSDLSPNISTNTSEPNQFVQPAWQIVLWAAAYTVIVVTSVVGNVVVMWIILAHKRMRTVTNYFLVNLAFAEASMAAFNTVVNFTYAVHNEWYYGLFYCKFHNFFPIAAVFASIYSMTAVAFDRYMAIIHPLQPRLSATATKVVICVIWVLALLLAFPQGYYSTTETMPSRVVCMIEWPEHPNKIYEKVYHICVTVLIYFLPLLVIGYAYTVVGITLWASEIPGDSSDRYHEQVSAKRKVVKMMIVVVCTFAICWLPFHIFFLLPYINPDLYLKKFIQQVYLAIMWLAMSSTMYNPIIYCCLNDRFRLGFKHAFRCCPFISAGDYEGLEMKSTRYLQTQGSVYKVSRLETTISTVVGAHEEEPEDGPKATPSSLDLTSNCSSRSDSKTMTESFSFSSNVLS
Sequence of Sodium-dependent noradrenaline transporter (P23975 whole entry): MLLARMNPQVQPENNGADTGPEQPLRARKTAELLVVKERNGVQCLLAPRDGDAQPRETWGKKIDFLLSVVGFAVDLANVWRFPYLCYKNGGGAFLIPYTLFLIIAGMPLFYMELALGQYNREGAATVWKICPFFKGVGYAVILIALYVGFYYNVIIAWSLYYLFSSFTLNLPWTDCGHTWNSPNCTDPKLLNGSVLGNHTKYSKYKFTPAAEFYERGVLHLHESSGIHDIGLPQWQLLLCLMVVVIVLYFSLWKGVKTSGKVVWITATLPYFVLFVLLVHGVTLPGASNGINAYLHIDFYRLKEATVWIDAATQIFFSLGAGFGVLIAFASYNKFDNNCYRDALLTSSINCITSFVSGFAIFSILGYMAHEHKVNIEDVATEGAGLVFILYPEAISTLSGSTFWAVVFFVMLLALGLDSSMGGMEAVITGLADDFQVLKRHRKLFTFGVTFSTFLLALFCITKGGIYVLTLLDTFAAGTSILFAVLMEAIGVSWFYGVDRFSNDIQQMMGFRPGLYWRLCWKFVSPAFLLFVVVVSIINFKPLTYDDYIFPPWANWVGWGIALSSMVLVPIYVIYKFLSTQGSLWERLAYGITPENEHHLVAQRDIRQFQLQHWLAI
Sequence of D(3) dopamine receptor (P35462 whole entry): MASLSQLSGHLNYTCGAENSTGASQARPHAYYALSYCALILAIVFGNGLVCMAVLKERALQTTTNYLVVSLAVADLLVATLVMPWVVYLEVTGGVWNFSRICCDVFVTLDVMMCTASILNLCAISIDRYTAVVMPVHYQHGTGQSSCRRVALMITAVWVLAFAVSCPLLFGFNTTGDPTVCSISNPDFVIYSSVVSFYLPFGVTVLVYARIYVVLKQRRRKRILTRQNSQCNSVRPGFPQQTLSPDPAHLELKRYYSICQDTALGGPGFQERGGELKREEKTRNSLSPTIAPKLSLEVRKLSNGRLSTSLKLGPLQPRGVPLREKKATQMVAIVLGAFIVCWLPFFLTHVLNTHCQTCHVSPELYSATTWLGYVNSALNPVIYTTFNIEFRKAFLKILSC
Sequence of Sodium-dependent dopamine transporter (Q01959 whole entry): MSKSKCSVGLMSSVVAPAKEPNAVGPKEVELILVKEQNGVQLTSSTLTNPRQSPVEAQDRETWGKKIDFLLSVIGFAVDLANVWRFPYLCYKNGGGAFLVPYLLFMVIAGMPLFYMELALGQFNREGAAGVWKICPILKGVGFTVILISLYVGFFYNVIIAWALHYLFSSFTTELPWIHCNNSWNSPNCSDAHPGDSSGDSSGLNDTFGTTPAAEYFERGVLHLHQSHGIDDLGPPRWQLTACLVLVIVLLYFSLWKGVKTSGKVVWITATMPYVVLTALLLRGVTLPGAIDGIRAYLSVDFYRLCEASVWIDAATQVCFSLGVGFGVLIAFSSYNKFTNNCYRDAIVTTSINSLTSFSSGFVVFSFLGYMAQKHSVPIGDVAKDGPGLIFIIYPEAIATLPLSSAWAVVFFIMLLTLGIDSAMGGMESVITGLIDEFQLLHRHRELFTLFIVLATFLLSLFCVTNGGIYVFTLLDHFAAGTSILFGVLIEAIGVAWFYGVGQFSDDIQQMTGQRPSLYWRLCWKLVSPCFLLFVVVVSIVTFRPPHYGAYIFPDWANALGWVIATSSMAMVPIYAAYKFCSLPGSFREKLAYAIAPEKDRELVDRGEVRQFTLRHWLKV
Sequence of Translocator protein (P30536 whole entry): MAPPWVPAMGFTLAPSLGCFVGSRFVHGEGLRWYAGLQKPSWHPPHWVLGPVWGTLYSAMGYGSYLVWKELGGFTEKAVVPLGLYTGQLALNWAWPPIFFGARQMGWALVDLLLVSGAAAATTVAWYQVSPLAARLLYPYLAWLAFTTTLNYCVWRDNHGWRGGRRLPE

A word on the IC50: it is the concentration at which inhibition is half-maximal. Turning to `CCOc1ccc(CCNC(=O)N2CCN(CCCC(c3ccc(F)cc3)c3ccc(F)cc3)CC2)cc1`, the IC50 in [1] is 2460 nM; in experiment [2], 1450 nM; in experiment [3], 1820 nM; in [4] it was 5180 nM; in [5], 993 nM; in [6] it was 757 nM. The IC50 in [7] was found to be 1420 nM; in [8], 860 nM; in experiment [9], 2040 nM; in experiment [10], 341 nM; in [11] it was 839 nM; in [12], 994 nM. The IC50 in experiment [13] came to 2890 nM; in experiment [14], 231 nM; in experiment [15], 800 nM; in experiment [16] it was 967 nM.

Turning to `O=C(OCc1cc2c(cc1Cl)OCO2)N1CCC(n2c(O)nc3ccccc32)CC1`, the concentration for half-maximal inhibition (IC50) in experiment [1] was 1780 nM; in experiment [17] it was 708 nM; in [2] it was 4890 nM; in experiment [4] it was 4420 nM; in experiment [18] it was 2220 nM; in experiment [5], 1340 nM. Moreover, the concentration for half-maximal inhibition (IC50) in [19] was 1040 nM; in [20], 2640 nM; in experiment [21] it was 3020 nM; in experiment [22], 4650 nM; in experiment [16], 7580 nM; in [23] it was 1740 nM.
